Assay results as given in patent publication US20250115594A1, “ANTIBACTERIAL AGENTS: SOLUBLE SALTS AND AQUEOUS FORMULATIONS OF PYRONINS” (priority 2018, published 2025).
Values after ≈ are worked out from the molar mass of the structure shown.

Assays:
[1] = tested on: Escherichia coli D21f2tolC; assay: Inhibition of bacterial growth, spiral gradient endpoint assay, E. coli; assay type: cell-based; conditions: read-out: in vitro antibacterial activity E. coli D21f2tolC MIC
Source text: (§1) Minimum inhibitory concentrations (MICs) for Staphylococcus aureus ATCC 12600 and Escherichia coli D21f2tolC were quantified using spiral gradient endpoint assays, essentially as described [Wallace, A. and Corkill, J. (1989) Application of the spiral plating method to study antimicrobial action. J. Microbiol. Meths. 10, 303-310; Paton, J., Holt, A., and Bywater, M. (1990) Measurement of MICs of antibacterial agents by spiral gradient endpoint compared with conventional dilution methods. Int. J. Exp. Clin. Chemother. 3, 31-38; Schalkowsky S. (1994) Measures of susceptibility from a spiral gradient of drug concentrations. Adv. Exp. Med. Biol. 349, 107-120]. Assays employed exponential-gradient plates containing 150 mm×4 mm Mueller-Hinton II cation-adjusted agar and 0.4-100 μg/ml of test salt. Plates were prepared using an Autoplate 4000 spiral plater (Spiral Biotech, Inc.). Saturated overnight cultures were swabbed radially onto plates, and plates were incubated for 16 h at 37° C. For each culture, the streak length was measured using a clear plastic template (Spiral Biotech, Inc.), the test-salt concentration at the streak endpoint was calculated using the program SGE (Spiral Biotech, Inc.), and the MIC was defined as the calculated test-salt concentration at the streak endpoint.

[2] = tested on: Mycobacterium tuberculosis H37Rv; assay: Inhibition of bacterial growth, microplate Alamar Blue assay, M. tuberculosis; assay type: cell-based; conditions: read-out: in vitro antibacterial activity M. tuberculosis H37Rv MIC
[3] = target: M. tuberculosis RNA polymerase (Mycobacterium tuberculosis (strain ATCC 25618 / H37Rv), UniProt P9WGY7+P9WGY9); assay: Fluorescence-detected assay of inhibition of Mycobacterium tuberculosis RNA polymerase; assay type: biochemical; conditions: read-out: RNAP-inhibitory activity M. tuberculosis RNAP IC50
Description: (§2) Fluorescence-detected RNA polymerase assays with E. coli RNA polymerase were performed by a modification of the procedure of Kuhlman et al., 2004 [Kuhlman, P., Duff, H. & Galant, A. (2004) A fluorescence-based assay for multisubunit DNA-dependent RNA polymerases. Anal. Biochem. 324, 183-190]. Reaction mixtures contained (20 μl): 0-100 nM test salt, 75 nM E. coli RNA polymerase σ^70 holoenzyme, 20 nM 384 bp DNA fragment containing the bacteriophage T4 N25 promoter, 100 μM ATP, 100 μM GTP, 100 μM UTP, 100 μM CTP, 50 mM Tris-HCl, pH 8.0, 100 mM KCl, 10 mM MgCl2, 1 mM DTT, 10 μg/ml bovine serum albumin, and 5.5% glycerol. Reaction components other than DNA and NTPs were pre-incubated for 10 min at 37° C. Reactions were carried out by addition of DNA and incubation for 5 min at 37° C., followed by addition of NTPs and incubation for 60 min at 37° C. DNA was removed by addition of 1 μl 5 mM CaCl2 and 2 U DNaseI (Ambion, Inc.), followed by incubation for 90 min at 37° C. RNA was quantified by addition of 100 μl RiboGreen RNA Quantitation Reagent (Invitrogen, Inc.; 1:500 dilution in Tris-HCl, pH 8.0, 1 mM EDTA), followed by incubation for 10 min at 25° C., followed by measurement of fluorescence intensity [excitation wavelength=485 nm and emission wavelength=535 nm; QuantaMaster QM1 spectrofluorometer (PTI, Inc.)]. IC50 is defined as the concentration of inhibitor resulting in 50% inhibition of RNA polymerase activity.
(§3) Fluorescence-detected RNA polymerase assays with M. tuberculosis RNA polymerase were performed as in Example 17.1, using reaction mixtures containing (20 μl): 0-100 nM test salt, 75 nM M. tuberculosis RNA polymerase core enzyme, 300 nM M. tuberculosis σ^A, 20 nM 384 bp DNA fragment containing the bacteriophage T4 N25 promoter, 100 μM ATP, 100 μM GTP, 100 μM UTP, 100 μM CTP, 40 mM Tris-HCl, pH 8.0, 80 mM NaCl, 5 mM MgCl2, 2.5 mM DTT, and 12.7% glycerol. IC50 is defined as the concentration of inhibitor resulting in 50% inhibition of RNA polymerase activity.

physchem [4] = assay type: physicochemical; conditions: for solubility: thermodynamic from solid
Description: Starting with 0.5-5 mg test compound in a glass vial at room temperature, successive cycles of addition of vehicle, vortexing 15 s, and inspection were performed until all test compound dissolved. Vehicles were: 0.01 M sodium phosphate (pH 7.4); 5% dextrose in 0.01 M sodium phosphate (pH 7.4); and 0.5% carboxymethylcellulose (CMC)/0.5% Tween-80 (pH 8.4).

S. aureus RNA polymerase = S. aureus RNA polymerase (Staphylococcus aureus (strain NCTC 8325 / PS 47), UniProt P47768+Q2G0N5); assay: Fluorescence-detected assay of inhibition of Staphylococcus aureus RNA polymerase; assay type: biochemical; conditions: read-out: RNAP-inhibitory activity S. aureus RNAP IC50
Description: as §2
as §3, with “S. aureus” for “M. tuberculosis”

[5] = tested on: Staphylococcus aureus ATCC 12600; assay: Inhibition of bacterial growth, spiral gradient endpoint assay, S. aureus; assay type: cell-based; conditions: ATCC12600, read-out: in vitro antibacterial activity S. aureus ATCC12600 MIC
Source text: as §1

physchem [6] = assay type: physicochemical; conditions: for solubility at 2 h: 37 °C, pH 7.4, aqueous buffer, kinetic from dmso stock
Description: Serial dilutions of test articles were prepared in dimethyl sulfoxide at 100× the final concentration. Test article solutions and blanks were diluted 100× into phosphate-buffered saline (PBS; 0.01 M sodium phosphate, pH 7.4, 137 mM NaCl, and 3 mM KCl) in a 96-well plate and mixed. After 2 h at 37° C., the presence of precipitate was detected by turbidity (absorbance at 540 nm). An absorbance value of greater than “mean+3xSD of the blank” (after subtracting background) was considered an indication of turbidity. The solubility limit was reported as the highest tested concentration with no evidence of turbidity.

[7] = target: E. coli RNA polymerase σ70 holoenzyme (Escherichia coli (strain K12), UniProt P0A8T7+P0A8V2); assay: Fluorescence-detected assay of inhibition of Escherichia coli RNA polymerase; assay type: biochemical; conditions: read-out: RNAP-inhibitory activity E. coli RNAP IC50
Description: as §2

[8] = pH 8.4, aqueous with cosolvent or surfactant or cyclodextrin

Row | Structure (SMILES) | MIC [1] [µg/mL] | MIC [2] [µg/mL] | IC50 [3] [nM] | solubility (physchem [4]; pH 7.4, aqueous buffer) [µg/mL] | solubility (physchem [4]; pH 7.4, saline or isotonic) [µg/mL] | solubility (physchem [4]; [8]) [µg/mL] | IC50 (S. aureus RNA polymerase) [nM] | MIC [5] [µg/mL] | solubility at 2 h (physchem [6]) [µg/mL] | IC50 [7] [nM] | concentration at which it can be formulated (physchem [4]) [µg/mL] | times more soluble than the corresponding free acid (Example 8) (physchem [6]) [times]
1 | [2H]C([2H])([2H])OC(=O)N/C=C/CCCc1cc(O)c(C(=O)/C(C)=C/c2cnc(Oc3ccc(F)cc3)s2)c(=O)o1 [Example 8] | 0.06 (≈ 0.116 µM) | 0.8 (≈ 1.55 µM) | 20 | < 100 | < 100 | < 100 | 60 | 0.3 (≈ 0.58 µM) | 100 (≈ 193 µM) | 4 |  | 
2 | [2H]C([2H])([2H])OC(=O)N/C=C/CCCc1cc([O-])c(C(=O)/C(C)=C/c2cnc(Oc3ccc(F)cc3)s2)c(=O)o1.[Na+] [Example 9] | 0.04 | 0.4 | 30 | 10000 | 5000 | 20000 | 30 | 0.4 | ≥ 5000 |  | ≥ 10000 | ≥ 50
3 | [2H]C([2H])([2H])OC(=O)N/C=C/CCCc1cc([O-])c(C(=O)/C(C)=C/c2cnc(Oc3ccc(F)cc3)s2)c(=O)o1.[K+] [Example 10] | 0.03 |  |  |  |  |  |  | 0.2 |  | 6 |  | 
4 | [2H]C([2H])([2H])OC(=O)N/C=C/CCCc1cc(O)c(C(=O)/C(C)=C/c2cnc(Oc3ccc(F)c(Cl)c3)s2)c(=O)o1 [Example 11] | 0.02 (≈ 0.0362 µM) | 0.8 (≈ 1.45 µM) | 30 |  |  |  | 1 | 0.2 (≈ 0.362 µM) |  | 3 |  | 
5 | [2H]C([2H])([2H])OC(=O)N/C=C/CCCc1cc([O-])c(C(=O)/C(C)=C/c2cnc(Oc3ccc(F)c(Cl)c3)s2)c(=O)o1.[Na+] [Example 12] | 0.03 | 0.8 | 30 |  |  |  | 3 | 0.2 |  |  |  | 
6 | [2H]C([2H])([2H])OC(=O)N/C=C/CCCc1cc(O)c(C(=O)/C(C)=C/c2cnc(Oc3ccc(-c4ccccc4)cc3)s2)c(=O)o1 [Example 13] | 0.03 (≈ 0.0521 µM) | > 50 | > 6000 |  |  |  | 10 | > 8 |  | 20 |  | 
7 | [2H]C([2H])([2H])OC(=O)N/C=C/CCCc1cc([O-])c(C(=O)/C(C)=C/c2cnc(Oc3ccc(-c4ccccc4)cc3)s2)c(=O)o1.[Na+] [Example 14] | 0.03 | > 50 | > 6000 |  |  |  | 30 | > 8 |  | 50 |  | 
